Data: patent US10597366B2, “Aryl ethers and uses thereof” (Peloton Therapeutics, Inc., priority 2013, dated 2020)

tested on: 786-O-Hif-Luc cells (luciferase gene driven by multiple HIF responsive elements); assay: Luciferase Assay; format: cell-based; conditions: 24 h, 786-O-Hif-Luc cells, about 24 hours; read-out: Mean Luciferease EC50
Protocol: A pool of infected cells were then selected against 2 μg/mL of puromycin (P8833, Sigma) for 10 days followed by limited dilution to select single clones.
Each concentration was tested in triplicate. After about 24 hours, luciferase activity was determined using ONE-Glo Luciferase Assay Reagent (E6110, Promega) following the manufacturer's recommended procedure. EC50 were calculated by using Dotmatics software.

Row | EC50 | SMILES
1 | 760 nM | CS(=O)(=O)c1ccc(Oc2cc(F)cc(C#N)c2)c(C(F)F)c1C#N [Compound 94, 3-(3-Cyano-5-fluorophenoxy)-2-(difluoromethyl)-6-(methylsulfonyl)benzonitrile]
2 | 7600 nM | N#Cc1cc(F)cc(Oc2ccc(S(=O)(=O)C(F)(F)F)c(C#N)c2Br)c1 [Compound 100, 2-Bromo-3-(3-cyano-5-fluorophenoxy)-6-((trifluoromethyl)sulfonyl)benzonitrile]
3 | 320 nM | O=Cc1c(S(=O)(=O)C(F)(F)F)ccc(Oc2cc(F)cc(Cl)c2)c1Br [Compound 101, 2-Bromo-3-(3-chloro-5-fluorophenoxy)-6-((trifluoromethyl)sulfonyl)benzaldehyde]
4 | 3300 nM | CC(O)c1c(S(=O)(=O)C(F)(F)F)ccc(Oc2cc(F)cc(Cl)c2)c1Br (stereo not shown) [Compound 103, 1-(2-Bromo-3-(3-chloro-5-fluorophenoxy)-6-((trifluoromethyl)sulfonyl)phenyl)ethan-1-ol]
5 | 12100 nM | CC(=O)c1c(S(=O)(=O)C(F)(F)F)ccc(Oc2cc(F)cc(Cl)c2)c1Br [Compound 104, 1-(2-Bromo-3-(3-chloro-5-fluorophenoxy)-6-((trifluoromethyl)sulfonyl)phenyl)ethan-1-one]
6 | 520 nM | O=S(=O)(c1ccc(Oc2cc(F)cc(Cl)c2)c(Br)c1C=NO)C(F)(F)F [Compound 107, 2-Bromo-3-(3-chloro-5-fluorophenoxy)-6-((trifluoromethyl)sulfonyl)benzaldehyde oxime]
7 | 6500 nM | O=S(=O)(c1ccc(Oc2cc(F)cc(Cl)c2)c(Br)c1CNCc1ccccc1)C(F)(F)F [Compound 110, N-Benzyl-1-(2-bromo-3-(3-chloro-5-fluorophenoxy)-6-((trifluoromethyl)sulfonyl)phenyl)methanamine]
8 | 1380 nM | N#Cc1c(S(=O)(=O)C(F)(F)F)ccc(Oc2cc(F)cc(Cl)c2)c1Cl [Compound 111, 2-Chloro-3-(3-chloro-5-fluorophenoxy)-6-((trifluoromethyl)sulfonyl)benzonitrile]
9 | 340 nM | O=Cc1c(S(=O)(=O)C(F)(F)F)ccc(Oc2cc(F)cc(Cl)c2)c1Cl [Compound 112, 2-Chloro-3-(3-chloro-5-fluorophenoxy)-6-((trifluoromethyl)sulfonyl)benzaldehyde]
10 | 9000 nM | O=S(=O)(c1ccc(Oc2cc(F)cc(Cl)c2)c(Cl)c1CNCCF)C(F)(F)F [Compound 114, N-(2-Chloro-3-(3-chloro-5-fluorophenoxy)-6-((trifluoromethyl)sulfonyl)benzyl)-2-fluoroethan-1-amine]
11 | 300 nM | CS(=O)(=O)c1ccc(Oc2cncc(Cl)c2)c2c1[C@H](O)C(F)(F)C2 [Compound 115, (S)-4-((5-Chloropyridin-3-yl)oxy)-2,2-difluoro-7-(methylsulfonyl)-2,3-dihydro-1H-inden-1-ol]
12 | 3000 nM | N#Cc1cccc(Oc2ccc(S(=O)(=O)C(F)(F)F)cc2Br)c1 [Compound 117, 3-(2-Bromo-4-((trifluoromethyl)sulfonyl)phenoxy)benzonitrile]
13 | 1500 nM | N#Cc1cc(F)cc(Oc2ccc(S(=O)(=O)C(F)(F)F)cc2Br)c1 [Compound 118, 3-(2-Bromo-4-((trifluoromethyl)sulfonyl)phenoxy)-5-fluorobenzonitrile]
14 | 7400 nM | N#Cc1cc(F)cc(Oc2ccc(S(=O)(=O)C(F)(F)F)cc2C#N)c1 [Compound 120, 2-(3-Cyano-5-fluorophenoxy)-5-((trifluoromethyl)sulfonyl)benzonitrile]
15 | 2000 nM | O=S(=O)(c1ccc(Oc2cc(F)cc(Cl)c2)c(Br)c1)C(F)F [Compound 131, 2-Bromo-1-(3-chloro-5-fluorophenoxy)-4-((difluoromethyl)sulfonyl)benzene]
16 | 2300 nM | N#Cc1cc(F)cc(Oc2ccc(S(=O)(=O)C(F)F)cc2C#N)c1 [Compound 134, 2-(3-Cyano-5-fluorophenoxy)-5-((difluoromethyl)sulfonyl)benzonitrile]
17 | 5400 nM | Cc1cc(S(=O)(=O)C(F)F)ccc1Oc1cc(F)cc(Cl)c1 [Compound 135, 1-(3-Chloro-5-fluoro-phenoxy)-4-(difluoromethylsulfonyl)-2-methyl-benzene]
18 | 2400 nM | Cc1cc(S(=O)(=O)C(F)F)ccc1Oc1cc(F)cc(C#N)c1 [Compound 136, 3-[4-(Difluoromethylsulfonyl)-2-methyl-phenoxy]-5-fluoro-benzonitrile]

Row | EC50 | SMILES
19 | 2400 nM | Cc1c(Oc2cc(F)cc(Cl)c2)ccc(S(=O)(=O)C(F)(F)F)c1Br [Compound 140, 3-Bromo-1-(3-chloro-5-fluoro-phenoxy)-2-methyl-4-(trifluoromethylsulfonyl)benzene]
20 | 1200 nM | Cc1c(Oc2cc(F)cc(Cl)c2)ccc(S(=O)(=O)C(F)(F)F)c1Cl [Compound 143, 3-Chloro-1-(3-chloro-5-fluoro-phenoxy)-2-methyl-4-(trifluoromethylsulfonyl)benzene]
21 | 390 nM | Cc1c(Oc2cc(F)cc(C#N)c2)ccc(S(=O)(=O)C(F)(F)F)c1Cl [Compound 144, 3-Fluoro-5-[3-chloro-2-methyl-4-(trifluoromethylsulfonyl)phenoxy]benzonitrile]
22 | 430 nM | Cc1c(Oc2cc(F)cc(C#N)c2)ccc(S(=O)(=O)C(F)(F)F)c1C=O [Compound 145, 3-Fluoro-5-[3-formyl-2-methyl-4-(trifluoromethylsulfonyl)phenoxy]benzonitrile]
23 | 480 nM | Cc1c(Oc2cc(F)cc(C#N)c2)ccc(S(=O)(=O)C(F)(F)F)c1CO [Compound 146, 3-Fluoro-5-[3-(hydroxymethyl)-2-methyl-4-(trifluoromethylsulfonyl)phenoxy]benzonitrile]
24 | 7600 nM | COC(=O)/C=C/c1c(S(=O)(=O)C(F)(F)F)ccc(Oc2cc(F)cc(C#N)c2)c1C [Compound 147, Methyl (E)-3-[3-(3-cyano-5-fluoro-phenoxy)-2-methyl-6-(trifluoromethylsulfonyl)phenyl]prop-2-enoate]
25 | 5600 nM | CCOC(=O)/C=C/c1c(S(=O)(=O)C(F)(F)F)ccc(Oc2cc(F)cc(C#N)c2)c1C [Compound 148, Ethyl (E)-3-(3-(3-cyano-5-fluorophenoxy)-2-methyl-6-((trifluoromethyl)sulfonyl)phenyl)acrylate]
26 | 8900 nM | Cc1nnc(/C=C/c2c(S(=O)(=O)C(F)(F)F)ccc(Oc3cc(F)cc(C#N)c3)c2C)o1 [Compound 151, 3-Fluoro-5-[2-methyl-3-[(E)-2-(5-methyl-1,3,4-oxadiazol-2-yl)vinyl]-4-(trifluoromethylsulfonyl)phenoxy]benzonitrile]
27 | 2100 nM | CS(=O)(=O)c1ccc(Oc2cc(F)cc(C#N)c2)c(C#N)c1Cl [Compound 152, 2-chloro-6-(3-cyano-5-fluorophenoxy)-3-(methylsulfonyl)benzonitrile]
28 | 2500 nM | O=S(=O)(c1ccc(Oc2ccc(F)c(Cl)c2)c2c1[C@H](O)CC2)C(F)F [Compound 157, (1R)-4-(3-Chloro-4-fluoro-phenoxy)-7-(difluoromethylsulfonyl)indan-1-ol]
29 | 10 nM | CS(=O)(=O)c1ccc(Oc2cc(F)cc(Cl)c2)c2c1[C@H](O)C(F)(F)C2 [Compound 160, (1S)-4-(3-Chloro-5-fluoro-phenoxy)-2,2-difluoro-7-methylsulfonyl-indan-1-ol]
30 | 63 nM | CS(=O)(=O)c1ccc(Oc2cccc(C#N)c2)c2c1[C@H](O)C(F)(F)C2 [Compound 162, 3-[(1S)-2,2-Difluoro-1-hydroxy-7-methylsulfonyl-indan-4-yl]oxybenzonitrile]
31 | 310 nM | O=S(=O)(c1ccc(Oc2cc(F)cc(F)c2)c(Cl)c1CO)C(F)F [Compound 168, (2-Chloro-6-((difluoromethyl)sulfonyl)-3-(3,5-difluorophenoxy)phenyl)methanol]
32 | 3410 nM | O=S(=O)(c1ccc(Oc2cc(Cl)cc(Cl)c2)c(Br)c1)C(F)(F)F [Compound 172, 2-Bromo-1-(3,5-dichlorophenoxy)-4-((trifluoromethyl)sulfonyl)benzene]
33 | 4000 nM | O=C1c2c(S(=O)(=O)C(F)F)ccc(Oc3cncc(Cl)c3)c2CC1(F)F [Compound 182, 4-((5-Chloropyridin-3-yl)oxy)-7-((difluoromethyl)sulfonyl)-2,2-difluoro-2,3-dihydro-1H-inden-1-one]
34 | 98 nM | O=S(=O)(CF)c1ccc(Oc2cncc(Cl)c2)c2c1[C@H](O)C(F)(F)C2 [Compound 187, (S)-4-((5-Chloropyridin-3-yl)oxy)-2,2-difluoro-7-((fluoromethyl)sulfonyl)-2,3-dihydro-1H-inden-1-ol]
35 | 12700 nM | CS(=N)(=O)c1ccc(Oc2cc(F)cc(F)c2)c2c1C(O)CC2 (stereo not shown) [Compound 190, (7-(3,5-Difluorophenoxy)-3-hydroxy-2,3-dihydro-1H-inden-4-yl)(imino)(methyl)-λ^6-sulfanone]

same assay, conditions: 24 h, read-out: Mean Luciferease EC50

Row | EC50 | SMILES
36 | 350 nM | N#Cc1cccc(Oc2ccc(S(=O)(=O)C(F)F)c3c2CC[C@H]3O)c1 [Compound 156, 3-[(1R)-7-(Difluoromethylsulfonyl)-1-hydroxy-indan-4-yl]oxybenzonitrile]
37 | 23 nM | CS(=O)(=O)c1ccc(Oc2cc(F)cc(C#N)c2)c2c1[C@H](O)C(F)(F)C2 [Compound 163, (S)-3-((2,2-Difluoro-1-hydroxy-7-(methylsulfonyl)-2,3-dihydro-1H-inden-4-yl)oxy)-5-fluorobenzonitrile]
38 | 240 nM | CS(=O)(=O)c1ccc(Oc2cc(F)cc(C#N)c2)c2c1[C@H](N)C(F)(F)C2 [Compound 165, 3-[(1S)-1-Amino-2,2-difluoro-7-methylsulfonyl-indan-4-yl]oxy-5-fluoro-benzonitrile]
39 | 16 nM | N#Cc1cc(Cl)cc(Oc2ccc(S(=O)(=O)CF)c3c2CC(F)(F)[C@H]3O)c1 [Compound 167, (S)-3-Chloro-5-((2,2-difluoro-7-((fluoromethyl)sulfonyl)-1-hydroxy-2,3-dihydro-1H-inden-4-yl)oxy)benzonitrile]

Row | SMILES | EC50
40 | N#Cc1cc(F)cc(Oc2ccc(S(=O)(=O)C(F)F)c3c2CC[C@H]3O)c1 [Compound 155, 3-[(1R)-7-(difluoromethylsulfonyl)-1-hydroxy-indan-4-yl]oxy-5-fluoro-benzonitrile] | 130 nM
